Legend:
Neuro2A cells = assay: Inhibition of ROS production in Neuro2A cells (H2O2-induced, DCFH-DA fluorescence); type: cell-based; settings: ROS induced with 0.2 mM H2O2
Method: The experiments carried out to evaluate the inhibition of ROS production using the compounds of the invention were based on the method reported by Danli W. and Patricia Yotnda in Production and Detection of Reactive Oxygen Species (ROS) in Cancers, J. Vis Exp. 2011; (57):3357.
Cultured brain Neuroblastoma2A (Neuro2A) were used.
15.000 Cells were plated in a 96 well plate with black walls and transparent flat bottom in 100 μL of DMEM complete medium (including 10% fetal bovine serum, […] L-Glutamine) containing compounds at indicated concentrations or 0.5% dimethylsulfoxide (DMSO), and kept overnight at 37° C. to allow them to attach to the plate. The following day the culture medium was removed, cells were washed with 100 μl of Phosphate Buffer Saline, pH 7.4 (PBS) and loaded with 100 μL of PBS containing 10 μM of dichloro-dihydro-fluorescein diacetate (DCFH-DA) and compounds at the indicated concentrations (or DMSO 0.5%) for additional 45 min at 37° C. DCFH-DA was prepared as a 20 mM stock in (DMSO) and kept in the dark at 4° C.
ROS production was induced by exposure with 0.2 mM H2O2 dissolved in 100 μl of complete DMEM medium without phenol red. Fluorescence intensity was measured at an […] wavelengths of 485/535 nm and ROS production was monitored for 2 h, at 37° C.

human NAAA = target: T1, human NAAA (Homo sapiens, UniProt Q02083); assay: In vitro human NAAA fluorogenic assay; type: biochemical; settings: Activity h-NAAA Fluorogenic assay, enzyme-enriched lysate of HEK-293 cells stably transfected with human NAAA
T1 construct: expressed in transfected cells; host or cells: HEK-293 (stably transfected, G418 selection); enzyme-enriched lysate
T1 sequence (Q02083 126-359 limits assumed): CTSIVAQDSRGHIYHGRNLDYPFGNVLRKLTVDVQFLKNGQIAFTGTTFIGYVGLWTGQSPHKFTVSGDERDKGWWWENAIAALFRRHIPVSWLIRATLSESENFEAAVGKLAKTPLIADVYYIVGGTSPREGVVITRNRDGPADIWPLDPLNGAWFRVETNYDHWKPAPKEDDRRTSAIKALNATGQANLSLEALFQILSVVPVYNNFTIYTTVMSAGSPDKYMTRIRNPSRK
T1 sequence (Q02083 29-125 limits assumed): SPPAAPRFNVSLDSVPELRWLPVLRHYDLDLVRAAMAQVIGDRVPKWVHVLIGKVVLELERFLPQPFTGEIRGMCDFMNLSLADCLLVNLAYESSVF
Method: Human recombinant proteins were obtained from HEK-293 stable overexpressing NAAA cell lines. Cells were grown in Dulbecco's modified Eagle medium (DMEM) containing 10% FBS, 1% penicillin/streptomycin, 1% glutamine and 500 μg/mL G418. To obtain membrane preparation cells were scraped off with cold phosphate-buffered saline (PBS) and collected by centrifugation (300×g, 7 min, 4° C.). Cell pellet were stored at −80° C. until protein preparation.
In Vitro Human NAAA Assay
Preparation of Enzyme-Enriched Lysate (h-NAAA).
HEK-293 cells stably transfected with the human NAAA coding sequences were used as enzyme source. Cell pellets were suspended in 20 mM Tris HCl (pH 7.4) with 0.32 M sucrose, sonicated and centrifuged at 800×g for 30 min at 4° C. Supernatants were then ultracentrifuged at 12,000×g for 30 min at 4° C. Pellets were re-suspended in PBS buffer (pH 7.4) and subjected to three freeze-thaw cycles at −80° C. The suspension was finally ultracentrifuged at 105,000×g for 1 h at 4° C., supematants were collected, protein concentration was measured and samples aliquoted and stored at −80° C. until use.
The results are summarized in Table 3 as follows, wherein +: IC50>2 μM; ++: 1.0 μM<IC50<2 μM; +++: IC50<1 μM: […]

## CCCCc1ccc(OC2CC3CCC(C2)N3S(=O)(=O)c2c(C)n[nH]c2C)cc1 [Example 54, (1R,3r,5S)-3-(4-Butylphenoxy)-8-[(3,5-dimethyl-1H-pyrazol-4-yl)sulfonyl]-8-azabicyclo[3.2.1]octane]
Neuro2A cells; compound 5 μM
  Inhibition of ROS production in neuro 2A cells, 5 μM (inhibition): 17%
Neuro2A cells; compound 10 μM
  Inhibition of ROS production in neuro 2A cells, 10 μM (inhibition): 114%
Human NAAA
  IC50: < 1000 nM
